Laboratory results: patent US7087214B2, “Water-soluble porphyrin platinum compounds with high tumor selectivity and their use for the treatment of benign and malignant tumor diseases” (Zentaris GmbH, priority 2002, dated 2006)

How the values were obtained:
TCC-SUP cells = experiment: End-point chemosensitivity assay, hematoporphyrin platinum derivatives, dark and irradiated (600–730 nm); format: cell-based, human; conditions: 1 μM concentration; hematoporphyrin-platinum series; bladder cancer cells TCC-SUP
From the text: (§1) Data of the cytotoxic effect was obtained, for instance, on the human tumor cell lines TCC-SUP and J82. The effect of the compounds was investigated in the dark and under irradiation with light at a wavelength of 600–730 nm. Selected compounds are clearly more activ cytotoxically under irradiation. There is a synergism between the cytotoxic effect of the platinum component and the photodynamic principle.
(§2) To determine the antiproliferative activity of the new porphyrin ligands and the corresponding platinum complexes with different amine non-leaving groups two bladder cancer cell lines TCC-SUP and J82 were selected as in vitro models.
(§3) To discriminate between the cytotoxic and phototoxic effects all experiments were carried out in duplicate. The cells were seeded into microplates and the test compounds were added after 48 h. One batch of the microplates was kept in the dark until the end of the experiment, whereas the other microplates were irradiated 48 h after addition of the substances for 10 min with a light dose of 24 J·cm^−2, before the plates were reincubated in the dark.
(§4) End-Point Chemosensitivity Assay.
Hematoporphyrin Platinum Derivatives Type.

[1] = tested on: bladder cancer cell lines TCC-SUP and J82; experiment: End-point chemosensitivity assay, tetraarylporphyrin platinum derivatives, dark and irradiated (600–730 nm); format: cell-based, human; conditions: 1 μM concentration; tetraarylporphyrin-platinum series
From the text: as §1, §2, §3, §4
Tetraarylporphyrin Platinum Derivatives Type.

Compound	T/Ccorr. (TCC-SUP cells)	T/Ccorr. [1]
N.N.[Cl][Pt][Cl] [cisplatin]	approximately 2%	
(+)-trans-1,2-Diaminocyclohexane[2-(4-{10,15,20-tris[4-(1,4,7,10-tetraoxaundecyl)phenyl]porphyrin-5-yl}phenoxy)malonato]platinum(II) [compound 29]		~57%
